# From patent publication US12435044B2, “Pyridazinone herbicides and pyridazinone intermediates used to prepare a herbicide” (FMC Corporation, priority 2018, dated 2025)
# Tests used:
# Assay in all cases: Test E pre-/postemergence greenhouse test
# Type in all cases: in vivo
# soybean (Glycine max) = tested on: soybean (Glycine max)
# From the text: (§1) Seeds of plant species selected from corn (Zea mays), soybean (Glycine max), velvetleaf (Abutilon theophrasti), lambsquarters (Chenopodium album), poinsettia, wild (Euphorbia heterophylla), pigweed, palmer (Amaranthus palmeri), waterhemp (common waterhemp, Amaranthus rudis), surinam grass (Brachiaria decumbens), crabgrass, large (Digitaria sanguinalis), crabgrass, Brazil (Digitaria horizontalis), panicum, fall (Panicum dichotomiflorum), foxtail, giant (Setaria faberii), foxtail, green (Setaria viridis), goosegrass (Eleusine indica), johnsongrass (Sorghum halepense), ragweed (common ragweed, Ambrosia elatior), barnyardgrass (Echinochloa crus-galli), sandbur (southern sandbur, Cenchrus echinatus), arrowleaf sida (Sida rhombifolia), ryegrass, Italian (Lolium multiflorum), dayflower, VA (Virginia (VA) dayflower, Commelina virginica), field bindweed (Convolvulus arvensis), morningglory (Ipomoea coccinea), horseweed (Conyza canadensis), kochia (Kochia scoparia), nutsedge, yellow (Cyperus esculentus) and hairy beggarticks (Bidenspilosa), were planted into a silt loam soil and treated preemergence with test chemicals formulated in a non-phytotoxic solvent mixture which included a surfactant.
# (§2) At the same time, plants selected from these crop and weed species and also waterhemp_RES1, (ALS & Triazine resistant common waterhemp, Amaranthus rudis), and waterhemp_RES2, (ALS & HPPD resistant common waterhemp, Amaranthus rudis) were planted in pots containing Redi-Earth® planting medium (Scotts Company, 14111 Scottslawn Road, Marysville, Ohio 43041) comprising spaghnum peat moss, vermiculite, wetting agent and starter nutrients were treated with postemergence applications of test chemicals formulated in the same manner. Plants ranged in height from 2 to 18 cm for postemergence treatments (1- to 4-leaf stage). Treated plants and controls were maintained in a greenhouse for 14 to 21 d, after which time all species were compared to controls and visually evaluated. Plant response ratings, summarized in Table E, are based on a scale of 0 to 100 where 0 is no effect and 100 is complete control. A dash (-) response means no test result.
# [1] = tested on: pigweed, palmer (Amaranthus palmeri)
# From the text: as §1, §2
# [2] = tested on: panicum, fall (Panicum dichotomiflorum)
# From the text: as §1, §2
# [3] = tested on: barnyardgrass (Echinochloa crus-galli)
# From the text: as §1, §2
# [4] = tested on: surinam grass (Brachiaria decumbens)
# From the text: as §1, §2
# [5] = tested on: waterhemp (common waterhemp, Amaranthus rudis)
# From the text: as §1, §2
# [6] = tested on: horseweed (Conyza canadensis)
# From the text: as §1, §2
# [7] = tested on: crabgrass, large (Digitaria sanguinalis)
# From the text: as §1, §2
# corn (Zea mays) = tested on: corn (Zea mays)
# From the text: as §1, §2
# [8] = tested on: velvetleaf (Abutilon theophrasti)
# From the text: as §1, §2
# [9] = tested on: ragweed (common ragweed, Ambrosia elatior)
# From the text: as §1, §2
compound,measurement,setting,value
Cc1cc(Cl)c2ccccc2c1-c1c(O)c(Cl)nn(C)c1=O [Cpd. No. 65],"Plant response rating, Soybean","soybean (Glycine max); Postemergence, 16 g ai/ha",70
same,"Plant response rating, Soybean","soybean (Glycine max); Postemergence, 31 g ai/ha",80
same,"Plant response rating, Soybean","soybean (Glycine max); Postemergence, 62 g ai/ha",90
same,"Plant response rating, Soybean","soybean (Glycine max); Postemergence, 125 g ai/ha",93
same,"Plant response rating, Soybean","soybean (Glycine max); Preemergence, 16 g ai/ha",23
same,"Plant response rating, Soybean","soybean (Glycine max); Preemergence, 31 g ai/ha",13
same,"Plant response rating, Soybean","soybean (Glycine max); Preemergence, 62 g ai/ha",15
same,"Plant response rating, Soybean","soybean (Glycine max); Preemergence, 125 g ai/ha",43
same,"Plant response rating, Pigweed, Palmer","[1]; Postemergence, 16 g ai/ha",35
same,"Plant response rating, Pigweed, Palmer","[1]; Postemergence, 31 g ai/ha",43
same,"Plant response rating, Pigweed, Palmer","[1]; Postemergence, 62 g ai/ha",68
same,"Plant response rating, Pigweed, Palmer","[1]; Postemergence, 125 g ai/ha",55
same,"Plant response rating, Pigweed, Palmer","[1]; Preemergence, 16 g ai/ha",40
same,"Plant response rating, Pigweed, Palmer","[1]; Preemergence, 31 g ai/ha",58
same,"Plant response rating, Pigweed, Palmer","[1]; Preemergence, 62 g ai/ha",80
same,"Plant response rating, Pigweed, Palmer","[1]; Preemergence, 125 g ai/ha",90
same,"Plant response rating, Panicum, Fall","[2]; Postemergence, 16 g ai/ha",80
same,"Plant response rating, Panicum, Fall","[2]; Postemergence, 31 g ai/ha",88
same,"Plant response rating, Panicum, Fall","[2]; Postemergence, 62 g ai/ha",93
same,"Plant response rating, Panicum, Fall","[2]; Postemergence, 125 g ai/ha",93
same,"Plant response rating, Panicum, Fall","[2]; Preemergence, 16 g ai/ha",75
same,"Plant response rating, Panicum, Fall","[2]; Preemergence, 31 g ai/ha",99
same,"Plant response rating, Panicum, Fall","[2]; Preemergence, 62 g ai/ha",100
same,"Plant response rating, Panicum, Fall","[2]; Preemergence, 125 g ai/ha",99
same,"Plant response rating, Barnyardgrass","[3]; Postemergence, 16 g ai/ha",80
same,"Plant response rating, Barnyardgrass","[3]; Postemergence, 31 g ai/ha",88
same,"Plant response rating, Barnyardgrass","[3]; Postemergence, 62 g ai/ha",93
same,"Plant response rating, Barnyardgrass","[3]; Postemergence, 125 g ai/ha",95
same,"Plant response rating, Barnyardgrass","[3]; Preemergence, 16 g ai/ha",0
same,"Plant response rating, Barnyardgrass","[3]; Preemergence, 31 g ai/ha",40
same,"Plant response rating, Barnyardgrass","[3]; Preemergence, 62 g ai/ha",38
same,"Plant response rating, Barnyardgrass","[3]; Preemergence, 125 g ai/ha",60
same,"Plant response rating, Surinam Grass","[4]; Postemergence, 16 g ai/ha",73
same,"Plant response rating, Surinam Grass","[4]; Postemergence, 31 g ai/ha",78
same,"Plant response rating, Surinam Grass","[4]; Postemergence, 62 g ai/ha",85
same,"Plant response rating, Surinam Grass","[4]; Postemergence, 125 g ai/ha",93
same,"Plant response rating, Surinam Grass","[4]; Preemergence, 16 g ai/ha",8
same,"Plant response rating, Surinam Grass","[4]; Preemergence, 31 g ai/ha",92
same,"Plant response rating, Surinam Grass","[4]; Preemergence, 62 g ai/ha",85
same,"Plant response rating, Surinam Grass","[4]; Preemergence, 125 g ai/ha",100
same,"Plant response rating, Waterhemp","[5]; Postemergence, 16 g ai/ha",83
same,"Plant response rating, Waterhemp","[5]; Postemergence, 31 g ai/ha",88
same,"Plant response rating, Waterhemp","[5]; Postemergence, 62 g ai/ha",99
same,"Plant response rating, Waterhemp","[5]; Postemergence, 125 g ai/ha",97
same,"Plant response rating, Waterhemp","[5]; Preemergence, 16 g ai/ha",75
same,"Plant response rating, Waterhemp","[5]; Preemergence, 31 g ai/ha",90
same,"Plant response rating, Waterhemp","[5]; Preemergence, 62 g ai/ha",99
same,"Plant response rating, Waterhemp","[5]; Preemergence, 125 g ai/ha",99
same,"Plant response rating, Horseweed","[6]; Postemergence, 16 g ai/ha",65
same,"Plant response rating, Horseweed","[6]; Postemergence, 31 g ai/ha",75
same,"Plant response rating, Horseweed","[6]; Postemergence, 62 g ai/ha",85
same,"Plant response rating, Horseweed","[6]; Postemergence, 125 g ai/ha",85
same,"Plant response rating, Horseweed","[6]; Preemergence, 16 g ai/ha",100
same,"Plant response rating, Horseweed","[6]; Preemergence, 31 g ai/ha",100
same,"Plant response rating, Horseweed","[6]; Preemergence, 62 g ai/ha",100
same,"Plant response rating, Horseweed","[6]; Preemergence, 125 g ai/ha",100
same,"Plant response rating, Crabgrass, Large","[7]; Postemergence, 16 g ai/ha",10
same,"Plant response rating, Crabgrass, Large","[7]; Postemergence, 31 g ai/ha",13
same,"Plant response rating, Crabgrass, Large","[7]; Postemergence, 62 g ai/ha",30
same,"Plant response rating, Crabgrass, Large","[7]; Postemergence, 125 g ai/ha",35
same,"Plant response rating, Crabgrass, Large","[7]; Preemergence, 16 g ai/ha",45
same,"Plant response rating, Crabgrass, Large","[7]; Preemergence, 31 g ai/ha",18
same,"Plant response rating, Crabgrass, Large","[7]; Preemergence, 62 g ai/ha",38
same,"Plant response rating, Crabgrass, Large","[7]; Preemergence, 125 g ai/ha",48
same,"Plant response rating, Corn","corn (Zea mays); Postemergence, 16 g ai/ha",0
same,"Plant response rating, Corn","corn (Zea mays); Postemergence, 31 g ai/ha",20
same,"Plant response rating, Corn","corn (Zea mays); Postemergence, 62 g ai/ha",23
same,"Plant response rating, Corn","corn (Zea mays); Postemergence, 125 g ai/ha",35
same,"Plant response rating, Corn","corn (Zea mays); Preemergence, 16 g ai/ha",0
same,"Plant response rating, Corn","corn (Zea mays); Preemergence, 31 g ai/ha",5
same,"Plant response rating, Corn","corn (Zea mays); Preemergence, 62 g ai/ha",20
same,"Plant response rating, Corn","corn (Zea mays); Preemergence, 125 g ai/ha",43
same,"Plant response rating, Velvetleaf","[8]; Postemergence, 16 g ai/ha",75
same,"Plant response rating, Velvetleaf","[8]; Postemergence, 31 g ai/ha",90
same,"Plant response rating, Velvetleaf","[8]; Postemergence, 62 g ai/ha",85
same,"Plant response rating, Velvetleaf","[8]; Postemergence, 125 g ai/ha",90
same,"Plant response rating, Velvetleaf","[8]; Preemergence, 16 g ai/ha",75
same,"Plant response rating, Velvetleaf","[8]; Preemergence, 31 g ai/ha",100
same,"Plant response rating, Velvetleaf","[8]; Preemergence, 62 g ai/ha",100
same,"Plant response rating, Velvetleaf","[8]; Preemergence, 125 g ai/ha",100
same,"Plant response rating, Ragweed","[9]; Postemergence, 16 g ai/ha",95
same,"Plant response rating, Ragweed","[9]; Postemergence, 31 g ai/ha",93
same,"Plant response rating, Ragweed","[9]; Postemergence, 62 g ai/ha",95
same,"Plant response rating, Ragweed","[9]; Postemergence, 125 g ai/ha",93
same,"Plant response rating, Ragweed","[9]; Preemergence, 16 g ai/ha",75
same,"Plant response rating, Ragweed","[9]; Preemergence, 31 g ai/ha",99
same,"Plant response rating, Ragweed","[9]; Preemergence, 62 g ai/ha",100
same,"Plant response rating, Ragweed","[9]; Preemergence, 125 g ai/ha",100
